Source: ChEMBL document CHEMBL1933028, “Discovery of cyclic amine-substituted benzoic acids as PPARα agonists” (Bioorg Med Chem Lett, 2012)

What was measured:
Canis familiaris [1] = assay: Antidyslipidemic activity in high-fat diet fed dog assessed as decrease in free fatty acid at 0.003 mg/kg, po administered QD for 1 week (reference value: 0.624 +/- 0.057 mEq/L); assay type: functional, Canis lupus familiaris
Canis familiaris [2] = assay: Antidyslipidemic activity in high-fat diet fed dog assessed as decrease in serum triglyceride level at 0.03 mg/kg, po administered QD for 1 week (reference value: 98 +/- 4 mg/dL); assay type: functional, Canis lupus familiaris
[3] = target: T1, Peroxisome proliferator-activated receptor alpha (Rattus norvegicus, UniProt P37230); assay: Agonist activity at rat PPARalpha; assay type: functional
T1 sequence (P37230 whole entry): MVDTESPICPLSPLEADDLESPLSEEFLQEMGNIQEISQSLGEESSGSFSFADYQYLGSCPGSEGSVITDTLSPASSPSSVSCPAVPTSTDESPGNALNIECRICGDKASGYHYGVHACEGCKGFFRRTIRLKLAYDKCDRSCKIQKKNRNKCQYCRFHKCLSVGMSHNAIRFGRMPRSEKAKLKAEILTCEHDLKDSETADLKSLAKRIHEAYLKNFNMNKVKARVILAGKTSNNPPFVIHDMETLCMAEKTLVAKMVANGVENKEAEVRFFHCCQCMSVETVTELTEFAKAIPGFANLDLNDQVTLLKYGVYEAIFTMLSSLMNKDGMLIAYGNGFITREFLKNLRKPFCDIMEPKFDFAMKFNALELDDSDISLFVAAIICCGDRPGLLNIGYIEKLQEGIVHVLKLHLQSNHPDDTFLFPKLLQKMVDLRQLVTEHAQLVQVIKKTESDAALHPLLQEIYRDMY

[4] = Agonist activity at hamster PPARgamma; assay type: functional, Cricetinae
Canis familiaris [5] = assay: Antidyslipidemic activity in high-fat diet fed dog assessed as decrease in serum triglyceride level at 0.003 mg/kg, po administered QD for 1 week (reference value: 98 +/- 4 mg/dL); assay type: functional, Canis lupus familiaris
[6] = target: T2, Peroxisome proliferator-activated receptor gamma (Rattus norvegicus, UniProt O88275); assay: Agonist activity at rat PPARgamma; assay type: functional
T2 sequence (O88275 whole entry): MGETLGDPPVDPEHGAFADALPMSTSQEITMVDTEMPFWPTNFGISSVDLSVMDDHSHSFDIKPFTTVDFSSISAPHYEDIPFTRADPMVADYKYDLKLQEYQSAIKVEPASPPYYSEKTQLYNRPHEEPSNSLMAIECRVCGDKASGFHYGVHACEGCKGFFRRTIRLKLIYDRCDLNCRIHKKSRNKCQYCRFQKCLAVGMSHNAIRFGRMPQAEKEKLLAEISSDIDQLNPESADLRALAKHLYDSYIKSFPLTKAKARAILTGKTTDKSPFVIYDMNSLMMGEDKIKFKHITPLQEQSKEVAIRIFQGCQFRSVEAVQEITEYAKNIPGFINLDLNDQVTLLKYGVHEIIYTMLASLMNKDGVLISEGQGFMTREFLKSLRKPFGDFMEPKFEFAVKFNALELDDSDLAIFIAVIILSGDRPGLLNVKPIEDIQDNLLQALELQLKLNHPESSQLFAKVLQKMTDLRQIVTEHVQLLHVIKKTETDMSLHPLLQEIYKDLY

Canis familiaris [7] = assay: Toxicity in high-fat diet fed dog assessed as effect on food intake at 0.03 mg/kg, po administered QD for 1 week (reference value: 3.67+/-0.09 kg); assay type: organism-based, Canis lupus familiaris; set-up: dose 0.03 mg/kg, route oral; conditions: in vivo, 168 h
Canis familiaris [8] = assay: Toxicity in high-fat diet fed dog assessed as change in body weight at 0.003 mg/kg, po administered QD for 1 week (reference value: 14.8 +/- 0.7 kg); assay type: organism-based, Canis lupus familiaris; set-up: dose 0.003 mg/kg, route oral; conditions: in vivo, 168 h
Canis familiaris [9] = assay: Toxicity in high-fat diet fed dog assessed as effect on food intake at 0.01 mg/kg, po administered QD for 1 week (reference value: 3.67+/-0.09 kg); assay type: organism-based, Canis lupus familiaris; set-up: dose 0.01 mg/kg, route oral; conditions: in vivo, 168 h
Canis familiaris [10] = assay: Antidyslipidemic activity in high-fat diet fed dog assessed as decrease in non-HDL cholesterol at 0.03 mg/kg, po administered QD for 1 week (reference value: 75 +/- 5 mg/dL); assay type: functional, Canis lupus familiaris
[11] = Cmax in dog at 0.3 mg/kg, po; assay type: ADME, organism-based, Canis lupus familiaris; set-up: dose 0.3 mg/kg, route oral; conditions: in vivo
Canis familiaris [12] = assay: Toxicity in high-fat diet fed dog assessed as effect on food intake at 0.003 mg/kg, po administered QD for 1 week (reference value: 3.67+/-0.09 kg); assay type: organism-based, Canis lupus familiaris; set-up: dose 0.003 mg/kg, route oral; conditions: in vivo, 168 h
[13] = Cmax in rat at 1 mg/kg, po; assay type: ADME, organism-based; set-up: dose 1 mg/kg, route oral; conditions: in vivo
[14] = Agonist activity at hamster PPARalpha; assay type: functional, Cricetinae
[15] = Total clearance in rat at 1 mg/kg, po; assay type: ADME, organism-based; set-up: dose 1 mg/kg, route oral; conditions: in vivo
[16] = target: T3, Peroxisome proliferator-activated receptor delta (Mus musculus, UniProt P35396); assay: Agonist activity at mouse PPARdelta; assay type: functional
T3 sequence (P35396 whole entry): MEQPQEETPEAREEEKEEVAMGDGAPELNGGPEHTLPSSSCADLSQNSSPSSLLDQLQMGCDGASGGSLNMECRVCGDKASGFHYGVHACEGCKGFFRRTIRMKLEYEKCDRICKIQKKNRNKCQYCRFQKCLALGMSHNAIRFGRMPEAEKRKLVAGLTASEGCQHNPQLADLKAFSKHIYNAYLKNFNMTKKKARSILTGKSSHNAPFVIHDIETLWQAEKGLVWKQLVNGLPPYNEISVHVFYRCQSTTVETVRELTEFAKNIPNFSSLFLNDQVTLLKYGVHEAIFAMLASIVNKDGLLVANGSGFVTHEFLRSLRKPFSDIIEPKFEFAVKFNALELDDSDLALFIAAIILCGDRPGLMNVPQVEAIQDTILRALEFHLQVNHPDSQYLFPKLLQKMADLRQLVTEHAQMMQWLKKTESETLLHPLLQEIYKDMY

[17] = Oral bioavailability in dog at 0.3 mg/kg; assay type: ADME, organism-based, Canis lupus familiaris; conditions: in vivo
[18] = Total clearance in dog at 0.3 mg/kg, po; assay type: ADME, organism-based, Canis lupus familiaris; set-up: dose 0.3 mg/kg, route oral; conditions: in vivo
Canis familiaris [19] = assay: Antidyslipidemic activity in high-fat diet fed dog assessed as decrease in total cholesterol at 0.003 mg/kg, po administered QD for 1 week (reference value: 205 +/- 6 mg/dL); assay type: functional, Canis lupus familiaris
[20] = target: T4, Peroxisome proliferator-activated receptor gamma (Homo sapiens, UniProt P37231); assay: Transactivation of human PPARgamma expressed in CHO-K1 cells; assay type: cell-based
T4 sequence (P37231 whole entry): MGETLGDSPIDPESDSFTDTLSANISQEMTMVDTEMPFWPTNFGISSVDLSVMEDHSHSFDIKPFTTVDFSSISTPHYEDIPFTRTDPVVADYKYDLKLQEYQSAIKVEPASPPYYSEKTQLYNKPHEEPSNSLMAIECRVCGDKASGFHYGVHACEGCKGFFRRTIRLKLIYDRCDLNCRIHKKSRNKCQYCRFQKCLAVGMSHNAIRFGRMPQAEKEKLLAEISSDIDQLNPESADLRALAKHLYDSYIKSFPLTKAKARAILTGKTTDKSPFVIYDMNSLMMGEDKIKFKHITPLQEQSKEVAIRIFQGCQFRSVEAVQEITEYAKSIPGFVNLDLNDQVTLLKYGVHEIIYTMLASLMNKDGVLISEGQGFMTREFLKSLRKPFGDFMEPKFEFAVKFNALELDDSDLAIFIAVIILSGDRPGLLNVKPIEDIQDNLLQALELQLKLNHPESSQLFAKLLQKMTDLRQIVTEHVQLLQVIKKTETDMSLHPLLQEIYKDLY

EC50 [3]: 3.6 µM | EC50 [4]: > 15 µM | EC50 [6]: 13 µM | Cmax [11]: 295 ng/mL | Cmax [13]: 316 ng/mL | EC50 [14]: 0.61 µM | CL/F [15]: 1.53 mL/min/kg | EC50 [16]: 6.6 µM | bioavailability [17]: 73.1% | CL/F [18]: 0.333 mL/min/kg | EC50 [20]: 9.6 µM
SMILES: Cc1nc(-c2ccc(Cl)cc2)sc1C(=O)N[C@H]1CCCN(c2cccc(C(=O)O)c2)C1
Activity (Canis familiaris [1]): 0.607 mEq/L | Activity (Canis familiaris [2]): 44 mg/dL | Activity (Canis familiaris [5]): 64 mg/dL | Activity (Canis familiaris [7]): 3.51 kg | Activity (Canis familiaris [8]): 15.3 kg | Activity (Canis familiaris [9]): 3.91 kg | Activity (Canis familiaris [10]): 42 mg/dL | Activity (Canis familiaris [12]): 3.85 kg | Activity (Canis familiaris [19]): 190 mg/dL
